Consider 2 molecules from article PMC3925040 (British Journal of Pharmacology, 2014).

In test [1] the target is T1, transient receptor potential melastatin 3 (TRPM3) (Mus musculus, UniProt J9SQF3). Put plainly: Fura2 Ca2+ imaging in HEK293 cells, inhibition of PS response at […]. Type of test: cell-based.
Test [2] addresses T1, transient receptor potential melastatin 3 (TRPM3). Put plainly: whole-cell patch clamp inhibition of PS-evoked current in HEK293 cells. Type of test: cell-based. The note with it: HEK293, read-out: % inhibition at 21 μM. (In general: The patch-clamp technique gives a direct electrical read-out from membranes.)

T1 sequence (J9SQF3 1-1709 isoform J9SQF3-12): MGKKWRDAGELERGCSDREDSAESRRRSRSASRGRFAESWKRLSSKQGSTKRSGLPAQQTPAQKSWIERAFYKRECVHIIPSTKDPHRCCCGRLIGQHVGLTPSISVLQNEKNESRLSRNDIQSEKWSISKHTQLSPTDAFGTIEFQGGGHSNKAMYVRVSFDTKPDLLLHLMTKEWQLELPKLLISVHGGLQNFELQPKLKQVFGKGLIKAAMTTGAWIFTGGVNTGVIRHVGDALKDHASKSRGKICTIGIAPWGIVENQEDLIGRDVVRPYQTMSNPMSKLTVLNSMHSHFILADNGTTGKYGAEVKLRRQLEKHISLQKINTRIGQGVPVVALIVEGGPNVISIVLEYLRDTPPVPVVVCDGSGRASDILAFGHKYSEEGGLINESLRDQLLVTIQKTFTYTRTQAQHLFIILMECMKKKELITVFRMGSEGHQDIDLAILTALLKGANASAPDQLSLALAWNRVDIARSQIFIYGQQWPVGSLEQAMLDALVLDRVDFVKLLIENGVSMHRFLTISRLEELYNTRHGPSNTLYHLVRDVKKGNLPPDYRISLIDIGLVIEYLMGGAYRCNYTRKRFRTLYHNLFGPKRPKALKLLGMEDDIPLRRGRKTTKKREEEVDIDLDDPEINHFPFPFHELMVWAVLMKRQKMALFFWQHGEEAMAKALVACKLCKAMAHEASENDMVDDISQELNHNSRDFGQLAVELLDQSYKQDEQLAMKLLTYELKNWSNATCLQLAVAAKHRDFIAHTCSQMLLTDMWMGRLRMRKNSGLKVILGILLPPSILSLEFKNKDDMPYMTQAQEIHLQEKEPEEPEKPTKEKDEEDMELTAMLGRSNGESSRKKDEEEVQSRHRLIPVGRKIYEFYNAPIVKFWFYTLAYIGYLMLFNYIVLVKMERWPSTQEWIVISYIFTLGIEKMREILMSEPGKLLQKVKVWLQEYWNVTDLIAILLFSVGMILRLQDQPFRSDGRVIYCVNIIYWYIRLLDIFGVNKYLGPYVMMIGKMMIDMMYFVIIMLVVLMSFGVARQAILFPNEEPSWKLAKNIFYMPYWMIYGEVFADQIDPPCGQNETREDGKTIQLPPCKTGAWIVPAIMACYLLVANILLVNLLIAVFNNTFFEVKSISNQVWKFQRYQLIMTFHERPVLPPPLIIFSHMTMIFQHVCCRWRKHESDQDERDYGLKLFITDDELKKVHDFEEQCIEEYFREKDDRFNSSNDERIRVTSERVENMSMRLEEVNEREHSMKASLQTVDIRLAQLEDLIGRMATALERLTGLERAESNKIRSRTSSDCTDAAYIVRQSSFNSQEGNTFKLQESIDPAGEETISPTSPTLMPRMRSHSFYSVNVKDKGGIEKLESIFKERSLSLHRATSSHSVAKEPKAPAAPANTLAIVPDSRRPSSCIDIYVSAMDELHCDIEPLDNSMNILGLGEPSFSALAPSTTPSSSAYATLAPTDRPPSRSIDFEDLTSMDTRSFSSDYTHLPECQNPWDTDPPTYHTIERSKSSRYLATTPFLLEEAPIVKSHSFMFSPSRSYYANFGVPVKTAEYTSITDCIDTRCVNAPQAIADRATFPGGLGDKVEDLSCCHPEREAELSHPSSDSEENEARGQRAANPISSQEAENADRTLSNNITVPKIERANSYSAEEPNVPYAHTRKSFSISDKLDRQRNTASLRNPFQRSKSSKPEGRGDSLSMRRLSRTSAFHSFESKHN

With `COC(=O)C1=C(C)NC(C)=C(C(=O)OCCN(C)Cc2ccccc2)C1c1cccc([N+](=O)[O-])c1` (centres unmarked) [Nic, nicardipine], in test [1], the “Fura2 Ca2+ imaging in HEK293 cells, inhibition of PS response at 50 μM” value is listed as “nicardipine also inhibited PS-induced TRPM3 activation”. In the case of `COCCOC(=O)C1=C(C)NC(C)=C(C(=O)OC(C)C)C1c1cccc([N+](=O)[O-])c1` (centres unmarked) [nimodipine], the inhibition (in general, the relative decrease from the control value, in per cent) at 21 µM in test [2] was 70.2%.
